Test results as given in US11787762B2, “Tetralin and tetrahydroquinoline compounds as inhibitors of HIF-2alpha” (ARCUS BIOSCIENCES, INC., priority 2020, dated 2023).
pIC50: −log10 of the molar value.

Target: T1, HIF-2α (Homo sapiens, UniProt Q99814)
T1 construct: host or cells: 786-O cells stably transduced with Cignal Lenti HIF Luc Reporter (only the reporter was introduced, not HIF-2α)
Assay: HIF-2α luciferase reporter assay in HIF-Luc-786-O cells
Assay type: cell-based
Description: Generation of HIF-2α Luciferase 786-O Cell Line:
Stable cell lines were generated by transducing 786-O cells (ATCC, CRL-1932) with Cignal Lenti HIF Luc Reporter lentivirus (CLS-007 L, Qiagen) according to the manufacturer's guidelines. In brief, 0.3×10^6 786-0 cells were transduced with lentivirus at a Multiplicity of Infection (MOI) of 25 for 24 hours. After transduction, cells were replenished with fresh RPMI 1640 Medium (Cat. No. 11875085, Thermo Fisher,) supplemented with 10% FBS (Cat. No. A3160502, Gibco), 2 mM GlutaMax (Cat. No. 35050-061, Invitrogen) and 100 units of penicillin and 100 μg of streptomycin/mL (Cat. No 15070063, Thermo Fisher) for another 24 hours. Antibiotic selection was performed in cell media containing 4 μg/mL of Puromycin. After 7 days of antibiotic selection, stable pools of surviving cells were expanded and used in a luciferase reporter assay.
HIF-2α Luciferase Reporter Assay:
On day one, 20 uL of HIF-Luc-786-0 cells in OptiMem (Cat. No. 31985088, Thermo Fisher) were seeded into each well of a 384 well white opaque plate (Corning 3570) and incubated at 37° C. and 5% CO2. Twenty microliters of 2× test compounds in OptiMem were added to cells after 4 hours of incubation. Final assay conditions comprised 20,000 cells per well in 1% DMSO with test compound concentrations ranging from 50 uM to 0 uM. After 20 hours incubation at 37° C. and 5% CO2, luciferase activity was determined using ONE-Glo Luciferase Assay Reagent (E6110, Promega) following the manufacture's recommended procedure. Briefly, 40 uL of ONE-Glo luciferase reagents were added to each well and luciferase signals were measured using an Envision 2102 Multilabel Reader. Percentage maximum activity in each test well was calculated based on DMSO (maximum activity) and no cell control wells (baseline activity). The IC50 values of the test compounds were determined from compound dose response curves fitted using a standard four parameter fit equation.

T1 sequence (Q99814 whole entry): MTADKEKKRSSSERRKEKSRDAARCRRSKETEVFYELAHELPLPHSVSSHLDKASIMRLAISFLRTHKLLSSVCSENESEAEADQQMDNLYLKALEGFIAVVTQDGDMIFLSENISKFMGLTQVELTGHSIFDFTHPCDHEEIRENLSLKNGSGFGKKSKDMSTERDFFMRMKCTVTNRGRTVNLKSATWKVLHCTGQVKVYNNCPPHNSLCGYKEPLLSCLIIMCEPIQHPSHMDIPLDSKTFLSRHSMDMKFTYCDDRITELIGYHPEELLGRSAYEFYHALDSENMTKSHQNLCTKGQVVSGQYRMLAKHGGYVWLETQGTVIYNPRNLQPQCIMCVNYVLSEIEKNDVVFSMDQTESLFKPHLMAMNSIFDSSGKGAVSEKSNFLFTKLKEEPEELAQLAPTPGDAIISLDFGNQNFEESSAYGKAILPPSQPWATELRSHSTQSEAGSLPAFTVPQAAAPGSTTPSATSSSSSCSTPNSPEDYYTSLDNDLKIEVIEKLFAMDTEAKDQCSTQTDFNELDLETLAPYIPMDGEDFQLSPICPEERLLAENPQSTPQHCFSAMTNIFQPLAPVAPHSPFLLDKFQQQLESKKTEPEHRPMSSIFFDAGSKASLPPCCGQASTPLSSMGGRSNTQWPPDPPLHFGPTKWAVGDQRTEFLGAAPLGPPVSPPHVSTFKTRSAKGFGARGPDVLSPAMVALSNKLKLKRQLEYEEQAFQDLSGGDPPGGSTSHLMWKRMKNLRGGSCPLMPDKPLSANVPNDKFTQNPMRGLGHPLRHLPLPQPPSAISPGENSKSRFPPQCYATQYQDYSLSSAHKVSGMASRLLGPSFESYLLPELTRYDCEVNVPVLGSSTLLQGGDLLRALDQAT

pIC50 (Table 1, 20 hours incubation) | pIC50 (Table 3, 20 hours incubation) | Structure (SMILES)
< 6.00 |  | O=[N+]([O-])c1cc(S(=O)(=O)C(F)(F)F)ccc1N1CCCc2ccc(C(F)F)cc21 [Example 67]
< 6.00 |  | O=[N+]([O-])c1cc(S(=O)(=O)C(F)(F)F)ccc1N1CCOc2ccc(Cl)cc21 [Example 82]
 | > 7.00 | Cc1ccccc1-c1ccc([C@H]2CC[C@H](F)c3cc(F)cc(C#N)c32)c2c1[C@H](O)C(F)(F)C2 [Example 144, (5S,8R)-8-[(1S)-2,2-difluoro-1-hydroxy-7-(2-methylphenyl)-2,3-dihydro-1H-inden-4-yl]-3,5-difluoro-5,6,7,8-tetrahydronaphthalene-1-carbonitrile]
 | > 7.00 | Cn1cc(-c2ccc([C@H]3CC[C@H](F)c4cc(F)cc(C#N)c43)c3c2[C@H](O)C(F)(F)C3)nn1 [Example 146, (5S,8R)-8-[(1S)-2,2-difluoro-1-hydroxy-7-(1-methyl-1H-1,2,3-triazol-4-yl)-2,3-dihydro-1H-inden-4-yl]-3,5-difluoro-5,6,7,8-tetrahydronaphthalene-1-carbonitrile]
 | 6.00 to 7.00 | Cc1ncc(-c2ccc([C@H]3CC[C@H](F)c4cc(F)cc(C#N)c43)c3c2[C@H](O)C(F)(F)C3)o1 [Example 148, (5S,8R)-8-[(1S)-2,2-difluoro-1-hydroxy-7-(2-methyl-1,3-oxazol-5-yl)-1,3-dihydroinden-4-yl]-3,5-difluoro-5,6,7,8-tetrahydronaphthalene-1-carbonitrile]
 | > 7.00 | N#Cc1cc(N)ncc1-c1ccc([C@H]2CC[C@H](F)c3cc(F)cc(C#N)c32)c2c1[C@H](O)C(F)(F)C2 [Example 149, 2-amino-5-[(3S)-7-[(1R,4S)-8-cyano-4,6-difluoro-1,2,3,4-tetrahydronaphthalen-1-yl]-2,2-difluoro-3-hydroxy-1,3-dihydroinden-4-yl] pyridine-4-carbonitrile]
 | 6.00 to 7.00 | Cn1cc(-c2ccc([C@H]3CC[C@H](F)c4cc(F)cc(C#N)c43)c3c2[C@H](O)C(F)(F)C3)cn1 [Example 150, (5S,8R)-8-[(1S)-2,2-difluoro-1-hydroxy-7-(1-methylpyrazol-4-yl)-1,3-dihydroinden-4-yl]-3,5-difluoro-5,6,7,8-tetrahydronaphthalene-1-carbonitrile]
 | > 7.00 | Cc1ncoc1-c1ccc([C@H]2CC[C@H](F)c3cc(F)cc(C#N)c32)c2c1[C@H](O)C(F)(F)C2 [Example 151, (5S,8R)-8-[(1S)-2,2-difluoro-1-hydroxy-7-(4-methyl-1,3-oxazol-5-yl)-1,3-dihydroinden-4-yl]-3,5-difluoro-5,6,7,8-tetrahydronaphthalene-1-carbonitrile]
 | > 7.00 | Cc1c(C#N)cccc1-c1ccc([C@H]2CC[C@H](F)c3cc(F)cc(C#N)c32)c2c1[C@H](O)C(F)(F)C2 [Example 155, (5S,8R)-8-[(1S)-7-(3-cyano-2-methylphenyl)-2,2-difluoro-1-hydroxy-1,3-dihydroinden-4-yl]-3,5-difluoro-5,6,7,8-tetrahydronaphthalene-1-carbonitrile]
 | 6.00 to 7.00 | N#Cc1cc(F)cc2c1[C@@H](c1ccc(-c3ccncc3)c3c1CC(F)(F)[C@H]3O)CC[C@@H]2F [Example 156, (5S,8R)-8-[(1S)-2,2-difluoro-1-hydroxy-7-pyridin-4-yl-1,3-dihydroinden-4-yl]-3,5-difluoro-5,6,7,8-tetrahydronaphthalene-1-carbonitrile]
 | > 7.00 | N#Cc1cc(F)cc2c1[C@@H](c1ccc(-c3cncs3)c3c1CC(F)(F)[C@H]3O)CC[C@@H]2F [Example 158, (5S,8R)-8-[(1S)-2,2-difluoro-1-hydroxy-7-(1,3-thiazol-5-yl)-1,3-dihydroinden-4-yl]-3,5-difluoro-5,6,7,8-tetrahydronaphthalene-1-carbonitrile]
 | > 7.00 | N#Cc1cc(F)cc2c1[C@@H](c1ccc(-c3cccnc3)c3c1CC(F)(F)[C@H]3O)CC[C@@H]2F [Example 160, (5S,8R)-8-[(1S)-2,2-difluoro-1-hydroxy-7-pyridin-3-yl-1,3-dihydroinden-4-yl]-3,5-difluoro-5,6,7,8-tetrahydronaphthalene-1-carbonitrile]
 | 6.00 to 7.00 | Cc1[nH]c(=O)ccc1-c1ccc([C@H]2CC[C@H](F)c3cc(F)cc(C#N)c32)c2c1[C@H](O)C(F)(F)C2 [Example 161, (5S,8R)-8-[(1S)-2,2-difluoro-1-hydroxy-7-(2-methyl-6-oxo-1H-pyridin-3-yl)-1,3-dihydroinden-4-yl]-3,5-difluoro-5,6,7,8-tetrahydronaphthalene-1-carbonitrile]
 | > 7.00 | N#Cc1cc(F)cc2c1[C@@H](c1ccc(-c3cnccc3F)c3c1CC(F)(F)[C@H]3O)CC[C@@H]2F [Example 163, (5S,8R)-8-[(1S)-2,2-difluoro-7-(4-fluoropyridin-3-yl)-1-hydroxy-2,3-dihydro-1H-inden-4-yl]-3,5-difluoro-5,6,7,8-tetrahydronaphthalene-1-carbonitrile]
 | 6.00 to 7.00 | N#Cc1cc(F)cc2c1[C@@H](c1ccc(-c3cccc4c3CC(=O)N4)c3c1CC(F)(F)[C@H]3O)CC[C@@H]2F [Example 164, (5S,8R)-8-[(1S)-2,2-difluoro-1-hydroxy-7-(2-oxo-2,3-dihydro-1H-indol-4-yl)-2,3-dihydro-1H-inden-4-yl]-3,5-difluoro-5,6,7,8-tetrahydronaphthalene-1-carbonitrile]
 | 6.00 to 7.00 | N#Cc1cc(F)cc2c1[C@@H](c1ccc(-c3ccccc3CN)c3c1CC(F)(F)[C@H]3O)CC[C@@H]2F [Example 165, (5S,8R)-8-[(1S)-7-[2-(aminomethyl)phenyl]-2,2-difluoro-1-hydroxy-2,3-dihydro-1H-inden-4-yl]-3,5-difluoro-5,6,7,8-tetrahydronaphthalene-1-carbonitrile]
 | > 7.00 | Cc1nc(N)ncc1-c1ccc([C@H]2CC[C@H](F)c3cc(F)cc(C#N)c32)c2c1[C@H](O)C(F)(F)C2 [Example 168, (5S,8R)-8-[(1S)-7-(2-amino-4-methylpyrimidin-5-yl)-2,2-difluoro-1-hydroxy-1,3-dihydroinden-4-yl]-3,5-difluoro-5,6,7,8-tetrahydronaphthalene-1-carbonitrile]
 | > 7.00 | Cn1c(-c2ccc([C@H]3CC[C@H](F)c4cc(F)cc(C#N)c43)c3c2[C@H](O)C(F)(F)C3)cccc1=O [Example 171, (5S,8R)-8-[(1S)-2,2-difluoro-1-hydroxy-7-(1-methyl-6-oxopyridin-2-yl)-1,3-dihydroinden-4-yl]-3,5-difluoro-5,6,7,8-tetrahydronaphthalene-1-carbonitrile]
 | < 6.00 | N#Cc1cc(F)cc2c1[C@@H](c1ccc(-c3ccn[nH]3)c3c1C[C@@H](F)[C@H]3O)CC[C@@H]2F [Example 172, (5S,8R)-3,5-difluoro-8-[(1S,2R)-2-fluoro-1-hydroxy-7-(1H-pyrazol-5-yl)-2,3-dihydro-1H-inden-4-yl]-5,6,7,8-tetrahydronaphthalene-1-carbonitrile]
 | > 7.00 | Cn1nncc1-c1ccc([C@H]2CC[C@H](F)c3cc(F)cc(C#N)c32)c2c1[C@H](O)[C@H](F)C2 [Example 175, (5S,8R)-3,5-difluoro-8-[(1S,2R)-2-fluoro-1-hydroxy-7-(3-methyltriazol-4-yl)-2,3-dihydro-1H-inden-4-yl]-5,6,7,8-tetrahydronaphthalene-1-carbonitrile]
